Source: US6822100B2 (Bristol-Myers Squibb Company, priority 2001, dated 2004)
Read-outs that look alike come from different tables or passages of the source.

Tests used:
[1] = biological target: T1, human serotonin transporters (Homo sapiens, UniProt P31645); test: Serotonin Transporter Binding Assay; conditions: HEK-hSERT cell membranes, 1 nM [3H]-citalopram, Cheng and Prusoff
T1 construct: expressed in transfected cells; host or cells: HEK-293 (HEK-hSERT), membrane homogenates
In short: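 Displacement of 1 nM [^3H]-citalopram (1 hr, 25° C, Tris pH 7.4 with NaCl/KCl) from membranes of HEK-293 cells stably expressing human SERT, with bound ligand read after filtration. 10 μM fluoxetine defined non-specific binding. Ki values were derived via Cheng–Prusoff from IC50 displacement-curve midpoints.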

[2] = biological target: T2, recombinant human dopamine D2L receptors (Homo sapiens, UniProt P14416); test: Dopamine Binding Assay; conditions: HEK-D2L cell membranes, 150 pM [3H]-spiperone, Cheng and Prusoff
T2 construct: expressed in transfected cells; host or cells: HEK-293 (HEK-D2L), membrane homogenates
In short: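 Competition binding on HEK-293 membranes stably expressing human D2L (~5 μg protein) with 150 pM [3H]-spiperone, 1.5 h at 22 °C in 50 mM Tris pH 7.4, 1 mM EDTA, 6 mM MgCl2. Filtration read-out; non-specific binding defined with 2 μM (+)butaclamol, Ki by Cheng-Prusoff.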

T1 sequence (P31645 whole entry): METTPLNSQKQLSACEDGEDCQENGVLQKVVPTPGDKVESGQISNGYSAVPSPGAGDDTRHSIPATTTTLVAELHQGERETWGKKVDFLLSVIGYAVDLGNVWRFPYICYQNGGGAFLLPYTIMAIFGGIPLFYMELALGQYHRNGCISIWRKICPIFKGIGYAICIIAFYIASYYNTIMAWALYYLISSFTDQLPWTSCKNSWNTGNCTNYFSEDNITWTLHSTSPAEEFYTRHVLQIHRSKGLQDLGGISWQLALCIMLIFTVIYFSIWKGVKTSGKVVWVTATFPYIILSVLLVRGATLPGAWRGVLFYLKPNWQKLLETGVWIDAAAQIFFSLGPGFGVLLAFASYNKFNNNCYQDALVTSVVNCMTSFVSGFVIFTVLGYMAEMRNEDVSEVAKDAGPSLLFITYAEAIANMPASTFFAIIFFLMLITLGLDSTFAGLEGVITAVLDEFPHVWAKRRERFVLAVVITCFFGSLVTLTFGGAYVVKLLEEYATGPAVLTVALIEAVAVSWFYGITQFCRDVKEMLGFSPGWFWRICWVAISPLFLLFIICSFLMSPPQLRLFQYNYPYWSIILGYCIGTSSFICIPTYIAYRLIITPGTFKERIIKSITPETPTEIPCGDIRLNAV
T2 sequence (P14416 whole entry): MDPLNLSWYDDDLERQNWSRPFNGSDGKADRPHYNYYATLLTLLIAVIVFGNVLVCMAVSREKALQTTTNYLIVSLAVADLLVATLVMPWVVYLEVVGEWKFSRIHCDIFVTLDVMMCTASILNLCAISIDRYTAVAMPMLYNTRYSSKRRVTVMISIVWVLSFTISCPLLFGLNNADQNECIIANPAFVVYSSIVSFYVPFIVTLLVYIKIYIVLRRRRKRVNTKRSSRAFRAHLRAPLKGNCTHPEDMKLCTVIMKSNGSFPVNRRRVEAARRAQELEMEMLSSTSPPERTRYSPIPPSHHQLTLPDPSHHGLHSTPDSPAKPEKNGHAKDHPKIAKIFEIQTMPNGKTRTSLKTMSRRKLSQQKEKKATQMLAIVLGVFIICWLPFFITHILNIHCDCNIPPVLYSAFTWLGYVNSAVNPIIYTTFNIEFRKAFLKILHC

Compound	Ki ([1]; read-out: SERT Ki) [nM]	Ki [2] [nM]	Ki ([1]; SERT Ki (nM)) [nM]
CNC(C)C1CC1c1c[nH]c2ccc(C#N)cc12 (racemic) [Example 125, trans-3-[2-(1-Methylamino-ethyl)-cyclopropyl]-1H-indole-5-carbonitrile]	1 to 10	100 to 1000	
CC(C)CCNCC1CC1c1c[nH]c2ccc(F)cc12 (stereo not drawn) [Example 72, trans-2-[5-Fluoroindol-3-yl]-1-[N-3-methyl-butylaminomethyl]-cyclopropane]	10 to 100	100 to 1000	
Fc1ccc2[nH]cc(C3CC3CN3CCCC3)c2c1 (stereo not drawn) [Example 84, trans-2-[5-Fluoroindol-3-yl]-1-[pyrrolidin-1-yl-methyl]-cyclopropane]	1 to 10	100 to 1000	
CCCN(CCC)CC1CC1c1c[nH]c2ccc(C#N)cc12 (stereo not drawn) [Example 38, trans-2-[5-Cyanoindol-3-yl]-1-[N,N-dipropylaminomethyl]-cyclopropane]		> 1000	1 to 10
CCCNCC1CC1c1c[nH]c2ccc(F)cc12 (centres unmarked) [Example 142]	10 to 100	100 to 1000	
CNC[C@H]1C[C@@H]1c1c[nH]c2ccc(C#N)cc12 [Example 120, (1S,2S)-trans-2-[5-Cyanoindol-3-yl]-1-(N-methylaminomethyl)cyclopropane]	1 to 10	100 to 1000	
CN(C)C[C@@H]1C[C@H]1Cc1c[nH]c2ccc(F)cc12 (single isomer, unassigned) [Example 148, (+)-[2-(5-Fluoro-1H-indol-3-ylmethyl)-cyclopropylmethyl]-dimethylamine]	10 to 100	100 to 1000	
CNCC1CC1c1c[nH]c2ccc(F)cc12 (stereo not drawn) [Example 181, cis-1-(N-methylaminomethyl)-2-[5-fluoroindol-3-yl]-cyclopropane]	10 to 100	100 to 1000	
CCN(CC)C[C@@H]1C[C@H]1c1c[nH]c2ccc(F)cc12 (relative stereo) [Example 86]	10 to 100	100 to 1000	
Fc1ccc2[nH]cc(C3CC3CNCCc3c[nH]c4ccccc34)c2c1 (stereo not drawn) [Example 68, trans-2-[5-Fluoroindol-3-yl]-1-[N-2-(3-indolyl)ethylaminomethyl]-cyclopropane]	1 to 10	10 to 100	
CCCN(CCC)CC1CC1c1c[nH]c2ccc(F)cc12 (stereo not drawn) [Example 77, trans-1-[N,N-Dipropylaminomethyl]-2-[5-fluoroindol-3-yl]-cyclopropane]	10 to 100	100 to 1000	
CN(C)CC1CC1c1c[nH]c2ccc(C#N)cc12 (single isomer, unassigned) [Example 129b, Cis-2-[5-Cyanoindol-3-yl]-1-(N,N-dimethylaminomethyl)cyclopropane]		> 1000	1 to 10
CC(C)CNCC1CC1c1c[nH]c2ccc(C#N)cc12 (stereo not drawn) [Example 31, trans-2-[5-Cyanoindol-3-yl]-1-[N-isobutylaminomethyl]-cyclopropane]	10 to 100	10 to 100	
CNC[C@H]1C[C@@H]1c1c[nH]c2cc(C#N)ccc12 (racemic) [Example 158, 3-(2-Methylaminomethyl-cyclopropyl)-1H-indole-6-carbonitrile]		> 1000	10 to 100
Fc1ccc2[nH]cc(C3CC3CN3CCCCC3)c2c1 (stereo not drawn) [Example 85, trans-2-[5-Fluoroindol-3-yl]-1-[piperidin-1-yl-methyl]-cyclopropane]		> 1000	10 to 100
CC(C1CC1c1c[nH]c2ccc(C#N)cc12)N1CCCC1 (stereo not drawn) [Example 124, trans-3-[2-(1-Pyrrolidin-1-yl-ethyl)-cyclopropyl]-1H-indole-5-carbonitrile]		> 1000	1 to 10
Fc1ccc2[nH]cc([C@@H]3C[C@@H]3CN3CCCC3)c2c1 (relative stereo) [Example 185, cis-1-(1-pyrrolidino)-2-[5-fluoroindol-3-yl]-cyclopropane]		> 1000	10 to 100
CN(C)CC1CC1c1c[nH]c2ccc(F)cc12 (single isomer, unassigned) [Example 118, Cis-2-[5-Fluoroindol-3-yl]-1-(N,N-dimethylaminomethyl)cyclopropane]		> 1000	10 to 100
CCNCC1CC1c1csc2ccccc12 (centres unmarked) [Example 169, (2-Benzo[b]thiophen-3-yl-cyclopropylmethyl)-ethyl-amine]	10 to 100	100 to 1000	
CN(C)CC1CC1c1c[nH]c2ccc(F)cc12 (single isomer, unassigned) [Example 130b, Cis-2-[5-Fluoroindol-3-yl]-1-(N,N-dimethylaminomethyl)cyclopropane]		> 1000	1 to 10

Now from value to molecule, other results behind:

Ki ([1]; read-out: SERT Ki) [nM]	Compound	Ki [2] [nM]	Ki ([1]; SERT Ki (nM)) [nM]
10 to 100	COC(=O)NCCCN(C)C[C@@H]1C[C@H]1c1c[nH]c2ccc(F)cc12 (relative stereo) [Example 104, trans-2-[5-Fluoroindol-3-yl]-1-[N,N-methyl-2-amino(methylcarbamoyl)propylaminomethyl]-cyclopropane]	100 to 1000	
1 to 10	CCOC(=O)NCCN(C)CC1CC1c1c[nH]c2ccc(C#N)cc12 (centres unmarked) [Example 134]	> 1000	
10 to 100	Fc1ccc2[nH]cc(C3CC3CNCCCn3ccnc3)c2c1 (stereo not drawn) [Example 65, trans-2-[5-Fluoroindol-3-yl]-1-[N-3-(1-imidazolyl)propylaminomethyl]-cyclopropane]	10 to 100	
1 to 10	N#Cc1ccc2[nH]cc([C@@H]3C[C@H]3CNCc3ccccc3F)c2c1 (relative stereo) [Example 11, trans-2-[5-Cyanoindol-3-yl]-1-[N-(2-fluorobenzyl)aminomethyl]-cyclopropane]	100 to 1000	
1 to 10	CCOC(=O)NCCCN(CC)C[C@@H]1C[C@H]1c1c[nH]c2ccc(C#N)cc12 (relative stereo) [Example 98, trans-2-[5-Cyanoindol-3-yl]-1-[N,N-ethyl-2-amino(ethylcarbamoyl)propylaminomethyl]-cyclopropane]	100 to 1000	
10 to 100	N#Cc1ccc2[nH]cc(C3CC3CN3CCN(Cc4ccccc4)CC3)c2c1 (stereo not drawn) [Example 36, trans-1-[4-Benzyl-piperazin-1-yl-methyl]-2-[5-cyanoindol-3-yl]-cyclopropane]	10 to 100	
1 to 10	COc1cccc(CNC[C@@H]2C[C@H]2c2c[nH]c3ccc(C#N)cc23)c1 (relative stereo) [Example 9, trans-2-[5-Cyanoindol-3-yl]-1-[N-(3-methoxybenzyl)aminomethyl]-cyclopropane]	100 to 1000	
10 to 100	Fc1ccc(CNCC2CC2c2c[nH]c3ccc(F)cc23)cc1 (stereo not drawn) [Example 55, trans-1-[N-(4-Fluorobenzyl)aminomethyl]2-[5-fluoroindol-3-yl]-cyclopropane]	100 to 1000	
10 to 100	N#Cc1ccc2[nH]cc(C3CC3CNCc3ccncc3)c2c1 (stereo not drawn) [Example 16, trans-2-[5-Cyanoindol-3-yl]-1-[N-(4-pyridyl)methylaminomethyl]-cyclopropane]	100 to 1000	
1 to 10	N#Cc1ccc2[nH]cc(C3CC3CNCCCc3ccccc3)c2c1 (stereo not drawn) [Example 21, trans-2-[5-Cyanoindol-3-yl]-1-[N-3-phenylpropylaminomethyl]-cyclopropane]	10 to 100	
1 to 10	COc1ccccc1CNCC1CC1c1c[nH]c2ccc(F)cc12 (stereo not drawn) [Example 50, trans-2-[5-Fluoroindol-3-yl]-1-[N-(2-methoxybenzyl)aminomethyl]-cyclopropane]	10 to 100	
1 to 10	CCOC(=O)NCCN(CC)C[C@@H]1C[C@H]1c1c[nH]c2ccc(F)cc12 (relative stereo) [Example 109]	100 to 1000	
1 to 10	N#Cc1ccc2[nH]cc([C@@H]3C[C@H]3CNCCc3ccccc3)c2c1 (relative stereo) [Example 40]	10 to 100	
10 to 100	CN(C)CC1CC1c1csc2ccccc12 (single isomer, unassigned; (+)) [Example 190B, (+)-(2-Benzo[b]thiophen-3-yl-cyclopropylmethyl)-dimethyl-amine]	> 1000	
1 to 10	N#Cc1ccc2[nH]cc([C@@H]3C[C@H]3CNCCc3cccc(F)c3)c2c1 (relative stereo) [Example 18, trans-2-[5-Cyanoindol-3-yl]-1-[N-2-(3-fluorophenyl)ethylaminomethyl]-cyclopropane]	10 to 100	
10 to 100	Fc1ccc2[nH]cc(C3CC3CNCc3cccnc3)c2c1 (stereo not drawn) [Example 57, trans-2-[5-Fluoroindol-3-yl]-1-[N-(3-pyridylmethyl)aminomethyl]-cyclopropane]	10 to 100	
10 to 100	COc1ccccc1CCNC[C@@H]1C[C@H]1c1c[nH]c2ccc(F)cc12 (relative stereo) [Example 80]	10 to 100	
10 to 100	N#Cc1ccc2[nH]cc(C3CC3CNCCCn3ccnc3)c2c1 (stereo not drawn) [Example 24, trans-2-[5-Cyanoindol-3-yl]-1-[N-3-(1-imidazolyl)propylaminomethyl]-cyclopropane]	100 to 1000	
1 to 10	CCCOC(=O)NCCCN(CC)C[C@@H]1C[C@H]1c1c[nH]c2ccc(C#N)cc12 (relative stereo) [Example 99, trans-2-[5-Cyanoindol-3-yl]-1-[N,N-ethyl-2-amino(propylcarbamoyl)propylaminomethyl]-cyclopropane]	100 to 1000	
10 to 100	N#Cc1ccc2[nH]cc(C3CC3CNCc3cccnc3)c2c1 (stereo not drawn) [Example 15, trans-2-[5-Cyanoindol-3-yl]-1-[N-(3-pyridyl)methylaminomethyl]-cyclopropane]	100 to 1000	
